In this assay the test system is SW480 cells. As to the kind of experiment: Cell death (LDH release) of transfected SW480 cells, alone and with anti-cancer compounds. Format: cell-based. To be noted: low dose of compound, 24 hours. As for the experimental part: SW480 cells obtained from ATCC were grown in DME:F12 supplemented with 10% foetal calf serum and routinely checked for being mycoplasma free. For transfection, the cells were seeded as 3×10^5 cells/2 ml in 6 well plates. Transfection was carried out after cells have attached at least overnight using Lipofectamin 2000 (Life Technologies). Liposomes were formed in medium without serum by mixing 10 μl lipofectamine 2000 and 3 μg plasmid DNA or 15 μl 20 pmol/μl oligonucleotide in a total volume of 250 μl. After liposome formation, the mixture was added to cells and incubated 5 hours in cell incubator before medium was changed to complete medium with serum. After 24 hours, cells were trypsinised and moved to 96 well plates to analyse for death induction.
The cells were allowed to plate for 24 hours before dosing with the indicated compounds, all in triplicate. The compounds were solubilised in DMSO and added to cells in medium with no more than 0.1% v/v DMSO. Triplicate cell cultures for basal cell death (untreated) and maximal response (complete lysis) were included as well as triplicate media samples for background determination. Cells were incubated for additional 24 hours. The maximal response (100% cell death) was induced by adding 1% v/v Triton X100 to triplicate cell cultures 5 min before medium was collected for detection of lactate dehydrogenase (LDH) activity. Medium from all samples were used in the detection of LDH using a kit from Takara Bio Inc.
In general terms: Release of lactate dehydrogenase indicates damage to the cell membrane.

Regarding `CN[C@@H]1C[C@H]2O[C@@](C)([C@@H]1OC)n1c3ccccc3c3c4c(c5c6ccccc6n2c5c31)C(=O)NC4` [staurosporine], the “effect of added compound on the increased cell death by siRNA against gamma2” value is reported as “did not attenuate”.
`C/C=C(/C)C(=O)O[C@H]1C(C)=C2[C@H]([C@@H]1OC(=O)CCCCCCC)[C@@](C)(OC(C)=O)C[C@H](OC(=O)CCC)[C@@]1(O)[C@H]2OC(=O)[C@@]1(C)O` [thapsigargin]: the “effect of added compound on the increased cell death by siRNA against gamma2” value is given as “did not attenuate”.
The entry for tunicamycin is “did not attenuate”.

B1: TRAIL: TNF-related apoptosis-inducing ligand (protein, UniProt P50591 1-281, looked up)
Tumor necrosis factor ligand …: MAMMEVQGGPSLGQTCVLIVIFTVLLQSLCVAVTYVYFTNELKQMQDKYSKSGIACFLKEDDSYWDPNDEESMNSPCWQVKWQLRQLVRKMILRTSEETISTVQEKQQNISPLVRERGPQRVAAHITGTRGRSNTLSSPNSKNEKALGRKINSWESSRSGHSFLSNLHLRNGELVIHEKGFYYIYSQTYFRFQEEIKENTKNDKQMVQYIYKYTSYPDPILLMKSARNSCWSKDAEYGLYSIYQGGIFELKENDRIFVSVTNEHLIDMDHEASFFGAFLVG
On to B1, for which the “effect of added compound on the increased cell death by siRNA against gamma2” value is “did not attenuate”.

(Values after US20070014788A1, “Laminin-5 modulators and uses thereof” (Novo Nordisk A/S, priority 2004, published 2007).)
